# According to PubChem BioAssay AID2060510 (Molecular Pharmacology Branch, DTP, NCI, 2025):
# pIC50: −log10 of the molar value.
# System: 439559-082-T-J2-PDC spheroids viability
# Test: Anticancer human tumor 439559-082-T-J2-PDC patient-derived colon adenocarcinoma cell line growth inhibition [GQUAD]
# Conditions: for pIC50: curve of first compound; for viability, T/C: stronger effect = lower value
# Source text: DNA G-quadruplex Stabilizer Agents in Combinations in Complex Spheroids
# A high-throughput screen of multi-cell type tumor spheroids was designed to identify active combinations of DNA G-quadruplex stabilizer agents and targeted small molecules. Complex spheroids include a stromal component modeled by human endothelial cells (HUVEC) and fibroblasts modeled by human mesenchymal stem cells (MSCs). The concentration ranges selected for each drug and investigational agent were based upon clinically achievable concentrations if the clinical Cmax of the agent was known.
# Compounds. The drugs and investigational agents: pidnarulex (CX-5461; NSC782164), APTO-253 (NSC789042), BRACO-19 (NSC847499), peposertib (NSC802822), ceralasertib (NSC780249), elimusertib (NSC800525), camonsertib (NSC841442), AZD-1390 (NSC803789), olaparib (NSC753686), talazoparib (NSC767125), ART-558 (NSC835418), sotorasib (NSC818433), MRTX-1133 (NSC836407), SN-38 (NSC673596), topotecan (NSC609699), etoposide (NSC141540), doxorubicin (NSC123127), gemcitabine (NSC613327), 5-fluorouracil (NSC19893), paclitaxel (NSC125973), vemurafenib (NSC761431), panobinostat (NSC761190), R-306465 (JNJ-16241199; NSC773264), adavosertib (NSC754352), TP-3654 (NSC805149), carboplatin (NSC241240), KSQ-4279 (NSC840948), and staurosporine (NSC755774) were obtained from the National Cancer Institute (NCI) Developmental Therapeutics Program Chemical Repository (34). The FDA-approved anticancer drug set is available from the NCI Developmental Therapeutics Program. […] The stock solutions were prepared in dimethyl sulfoxide (DMSO, Sigma-Aldrich, St. Louis, MO, cat. D2650) at 800-fold the tested concentration and stored at -70 degrees C prior to their use. All drugs and investigational agents were tested over a range starting from a high concentration at or near the clinical Cmax and decreasing in half-log increments. If the clinical Cmax for an agent had not been determined, the highest concentration tested was 10 microM.
# 2.3 Cell Culture. All cells were maintained in an incubator at 37 degrees C and 5% CO2 with 95% humidity. The PDC lines were cultured according to standard operating procedures established by the NCI PDMR. All PDCs were thawed and cultured in Matrigel-coated flasks prepared with a working solution of 1X Ham's F-12 nutrient mix, without supplementation (Invitrogen, cat. 11765054), 100 U/mL penicillin-streptomycin (Invitrogen, cat. 15140122), and 2.5% Matrigel (Corning Inc., cat. 354248) for the first three passages. The 857933-349-R-J2-PDC line was cultured in 6C/Colon 1B media, which includes advanced DMEM/F-12 (Thermo Fisher Scientific, cat. 12634028), 10 mM HEPES (Thermo Fisher Scientific, cat. 15630080), 1X GlutaMAX supplement (Thermo Fisher Scientific, cat. 35050061), 0.1 mg/mL primocin (InvivoGen, cat. ant-pm-2), 10% defined fetal bovine serum, heat inactivated (HyClone Laboratories Inc., cat. SH30070.03HI), 50% L-WRN conditioned media (ATCC, cat. CRL-3276), 1.25 mM N-Acetyl-L-cysteine (Sigma-Aldrich, cat. A9165), 10 mM nicotinamide (Sigma-Aldrich, cat. N0636), 1X B-27 supplement (Thermo Fisher Scientific, cat. 17504044), 1X N-2 supplement (Thermo Fisher Scientific, cat. 17502048), 10 microM Y-27632 dihydrochloride (Tocris Bioscience, cat. 1254), and 50 ng/mL human EGF recombinant protein (Thermo Fisher Scientific, cat. PHG0311). The 485176-168-R4-J1-PDC line was cultured in Panc media, which includes all 6C/Colon 1B media components plus 100 ng/mL human FGF-10 (Thermo Fisher Scientific, cat. 100-26), 500 nM SB-431542 (Selleckchem, cat. S1067), and gastrin (Tocris, cat. 3006).
# […]
# [1] = second compound 0.0316 µM, first compound 0.0316 µM
# [2] = second compound 0.0316 µM, first compound 0.1 µM
# [3] = second compound 0.0316 µM, first compound 0.316 µM
# [4] = second compound 0.0316 µM, first compound 1 µM
# [5] = second compound 0.0316 µM, first compound 3.16 µM
# [6] = second compound 0.0316 µM, first compound 10 µM
# [7] = second compound 0.1 µM, first compound 0.0316 µM
# [8] = second compound 0.1 µM, first compound 0.1 µM
# [9] = second compound 0.1 µM, first compound 0.316 µM
# [10] = second compound 0.1 µM, first compound 1 µM
# [11] = second compound 0.1 µM, first compound 3.16 µM
# [12] = second compound 0.1 µM, first compound 10 µM
# [13] = second compound 0.316 µM, first compound 0.0316 µM
# [14] = second compound 0.316 µM, first compound 0.1 µM
# [15] = second compound 0.316 µM, first compound 0.316 µM
# [16] = second compound 0.316 µM, first compound 1 µM
# [17] = second compound 0.316 µM, first compound 3.16 µM
# [18] = second compound 0.316 µM, first compound 10 µM
# [19] = second compound 1 µM, first compound 0.0316 µM
# [20] = second compound 1 µM, first compound 0.1 µM
# [21] = second compound 1 µM, first compound 0.316 µM
# [22] = second compound 1 µM, first compound 1 µM
# [23] = second compound 1 µM, first compound 3.16 µM
# [24] = second compound 1 µM, first compound 10 µM
# [25] = second compound 3.16 µM, first compound 0.0316 µM
# [26] = second compound 3.16 µM, first compound 0.1 µM
# [27] = second compound 3.16 µM, first compound 0.316 µM
# [28] = second compound 3.16 µM, first compound 1 µM
# [29] = second compound 3.16 µM, first compound 3.16 µM
# [30] = second compound 3.16 µM, first compound 10 µM
# [31] = second compound 10 µM, first compound 0.0316 µM
# [32] = second compound 10 µM, first compound 0.1 µM
# [33] = second compound 10 µM, first compound 0.316 µM
# [34] = second compound 10 µM, first compound 1 µM
# [35] = second compound 10 µM, first compound 3.16 µM
# [36] = second compound 10 µM, first compound 10 µM
# 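Note: spheroids exposed to the agents for 7 days before readout.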
# 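Throughout, for viability, T/C: percent of luminescence signal in DMSO vehicle wells taken as 100% viability.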
smiles,measurement,setting,value
CCCS(=O)(=O)Nc1ccc(F)c(C(=O)c2c[nH]c3ncc(-c4ccc(Cl)cc4)cc23)c1F + Cc1[nH]c2ccc(F)cc2c1-c1nc2c3cccnc3c3ncccc3c2[nH]1,pIC50,second compound 0.0316 µM,5.56
same,pIC50,second compound 0.1 µM,5.58
same,pIC50,second compound 0.316 µM,5.51
same,pIC50,second compound 1 µM,5.50
same,pIC50,second compound 3.16 µM,5.69
same,pIC50,second compound 10 µM,5.58
same,"viability, T/C",[1],108%
same,"viability, T/C",[2],96.2%
same,"viability, T/C",[3],103%
same,"viability, T/C",[4],78.5%
same,"viability, T/C",[5],46.5%
same,"viability, T/C",[6],21.1%
same,"viability, T/C",[7],104%
same,"viability, T/C",[8],94.5%
same,"viability, T/C",[9],95%
same,"viability, T/C",[10],83.8%
same,"viability, T/C",[11],43.5%
same,"viability, T/C",[12],22.7%
same,"viability, T/C",[13],105%
same,"viability, T/C",[14],100%
same,"viability, T/C",[15],89.8%
same,"viability, T/C",[16],80.2%
same,"viability, T/C",[17],47.6%
same,"viability, T/C",[18],23%
same,"viability, T/C",[19],108%
same,"viability, T/C",[20],97.3%
same,"viability, T/C",[21],90.4%
same,"viability, T/C",[22],75.1%
same,"viability, T/C",[23],48.6%
same,"viability, T/C",[24],20.8%
same,"viability, T/C",[25],78.7%
same,"viability, T/C",[26],86%
same,"viability, T/C",[27],79.5%
same,"viability, T/C",[28],65.2%
same,"viability, T/C",[29],40.5%
same,"viability, T/C",[30],16.2%
same,"viability, T/C",[31],81.2%
same,"viability, T/C",[32],67.6%
same,"viability, T/C",[33],71.5%
same,"viability, T/C",[34],67.6%
same,"viability, T/C",[35],46.1%
same,"viability, T/C",[36],13.5%
C=CC(=O)N1CCN(c2nc(=O)n(-c3c(C)ccnc3C(C)C)c3nc(-c4c(O)cccc4F)c(F)cc23)C(C)C1 (centres undefined) + Cc1cnc(CNC(=O)c2c(=O)c3ccc(N4CCCN(C)CC4)nc3n3c2sc2ccccc23)cn1,pIC50,second compound 0.0316 µM,< 5.00
same,pIC50,second compound 0.1 µM,< 5.00
same,pIC50,second compound 0.316 µM,< 5.00
same,pIC50,second compound 1 µM,< 5.00
same,pIC50,second compound 3.16 µM,< 5.00
same,pIC50,second compound 10 µM,< 5.00
same,"viability, T/C",[1],116%
same,"viability, T/C",[2],95.1%
same,"viability, T/C",[3],103%
same,"viability, T/C",[4],110%
same,"viability, T/C",[5],95.6%
same,"viability, T/C",[6],111%
same,"viability, T/C",[7],99.3%
same,"viability, T/C",[8],99.1%
same,"viability, T/C",[9],87.3%
same,"viability, T/C",[10],87.9%
same,"viability, T/C",[11],93%
same,"viability, T/C",[12],93.2%
same,"viability, T/C",[13],95.2%
same,"viability, T/C",[14],92.3%
same,"viability, T/C",[15],84.9%
same,"viability, T/C",[16],91.2%
same,"viability, T/C",[17],91.1%
same,"viability, T/C",[18],93%
same,"viability, T/C",[19],73.7%
same,"viability, T/C",[20],83%
same,"viability, T/C",[21],76.1%
same,"viability, T/C",[22],75.4%
same,"viability, T/C",[23],87.9%
same,"viability, T/C",[24],75.9%
same,"viability, T/C",[25],76.9%
same,"viability, T/C",[26],73%
same,"viability, T/C",[27],71.5%
same,"viability, T/C",[28],71.1%
same,"viability, T/C",[29],78%
same,"viability, T/C",[30],72.9%
same,"viability, T/C",[31],59.2%
same,"viability, T/C",[32],74.7%
same,"viability, T/C",[33],75.8%
same,"viability, T/C",[34],76.2%
same,"viability, T/C",[35],77.1%
same,"viability, T/C",[36],72.6%
